Entries after “also recorded” stand apart in the source; their conditions may differ. No end group written: not given here.
Tests used:
Format in all cases: cell-based
[1] = test system: HT29 human colorectal adenocarcinoma cells; test: MTT cell proliferation assay, serum-containing
Procedure: (§1) HT29 (colorectal adenocarcinoma) (ATCC HTB-38; Manassas, Va.). SW480 colon carcinoma cells (ATCC) and MKN45 gastric carcinoma cells (Cancer Research Laboratory, University of New South Wales, Sydney, Australia) were maintained in DMEM (Invitrogen, Carlsbad, Calif.) containing 10% heat inactivated, filtered, fetal bovine serum (FBS; Invitrogen) and 20 mM HEPES buffer. Cell culture was carried out in an incubator set at 37° C. in 5% CO2 in air. Cells were grown to approximately 80% confluence in tissue culture flasks before being recovered from the substrate by trypsinisation. Briefly, resident culture media was removed and cells washed twice with sterile phosphate-buffered saline solution. A volume of 10× trypsin in EDTA (to provide 0.5% trypsin w/w) was added in sufficient quantity to cover the cells. When cells had sufficiently detached from the substrate, trypsin activity was stopped by the addition of 10% FBS in DMEM. Detached cells were transferred to a conical sterile tube and the suspended cells passaged ten times up and down through a 10 ml pipette to produce a single cell suspension suitable for counting. The number of viable cells was determined using a viability stain (Trypan blue) and counting using a haemocytometer.
(§2) The MTT cell proliferation assay measures cell proliferation rate and, in instances where cell viability is compromised, the assay indicates a comparative reduction in cell viability.
(§3) Single cell suspensions of viable trypsinised cells were seeded into 96-well tissue culture plates at a density of 2×10^3 cells per well in a volume of 100 ul of culture media with or without serum. A set of triplicate wells was prepared for each concentration of compound being tested. […]
(§4) Appropriate concentrations of compound were prepared by dilution of freshly prepared sterile 1 mM stock solutions in normal saline into cell culture media to give a final culture-well volume of 200 ul. […] Plates were gently vortexed to complete solubilisation of crystalline material and absorbance read at 540 nm using a microplate reader. […]

[2] = test system: HT29 human colorectal adenocarcinoma cells; test: MTT cell proliferation assay, serum-free; details: absence of serum, 72 hour MTT assay, FIG. 5c
Procedure: as §1, §2, §3, §4

[3] = test system: MKN45 human gastric carcinoma cells; test: MTT cell proliferation assay, serum-containing; details: presence of serum, 48 hour MTT assay, FIG. 6
Procedure: as §1, with “Detached cells were transferred to a conical sterile tube and the suspended cells passaged ten times up and down through a 10 ml pipette to produce a single cell suspension suitable for counting.” left out, “haemocytometer. […]” for “haemocytometer.”
as §4

[4] = test system: SW480 human colon carcinoma cells; test: MTT cell proliferation assay, serum-containing; details: presence of serum, 48 hour MTT assay, FIG. 6
Procedure: as §1, with “Detached cells were transferred to a conical sterile tube and the suspended cells passaged ten times up and down through a 10 ml pipette to produce a single cell suspension suitable for counting.” left out, “haemocytometer. […]” for “haemocytometer.”
as §4

DDVRRRVQQETTGHRGRAKDPL (listed as Brevibacterium linens) [22C]
depression of in vitro cell proliferation of colon cancer cells ([1]; MTT assay containing serum (24 hour assay), concentration of 35 uM, FIG. 5d): up to 54%
effectiveness compared with other peptides ([1]; serum-supplemented culture media, FIG. 5d and FIG. 5a): more effective than peptide 14C and peptide 8C; also recorded: more effective than the 24-NH2 peptide
inhibition of growth of HT29 colon cancer cells [2]: inhibited the growth
inhibition of proliferation of MKN45 cells [3]: inhibit proliferation of SW480 and MKN45 cells to a similar degree as for HT29 cells
inhibition of proliferation of SW480 cells [4]: inhibit proliferation of SW480 and MKN45 cells to a similar degree as for HT29 cells

24-NH2: peptide consisting of amino acids 266-289 of GenBank Accession No. O68604; extended version of peptide 22C, synthesized and amidated (DDVRRRVQQETTGHRGRAKDPLYR-NH2; listed as Brevibacterium linens)
depression of in vitro cell proliferation of colon cancer cells ([1]; MTT assay (72 hours), serum-containing, concentration of 50 μM, FIG. 5a): up to 36%

RGRAKDPL [8C]
inhibition of growth of HT29 colon cancer cells [2]: inhibited the growth

H-DDVRRRVQQETTGH-COOH (H-DDVRRRVQQETTGH-OH) [14C, 14 mer derivative of 22C containing the TAT-like motif]
inhibition of growth of HT29 colon cancer cells [2]: inhibited the growth
